In PubChem BioAssay AID2060508 (Molecular Pharmacology Branch, DTP, NCI, 2025):

Tested on: 454973-116-R2-J3-PDC spheroids, viability, % test/control
Experiment: Anticancer human tumor 454973-116-R2-J3-PDC patient-derived pancreatic carcinoma cell line growth inhibition [GQUAD]
Conditions: spheroids with HUVEC and MSC; for IC50: curve of first compound; for viability, T/C: stronger effect = lower value
In short: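 Tumor cells were grown as complex spheroids with HUVEC endothelial cells and mesenchymal stem cells as stroma. G-quadruplex stabilizers were combined with targeted agents over half-log dilutions from near the clinical Cmax, or from 10 microM.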

[1] = second compound 0.0316 µM, first compound 0.0316 µM
[2] = second compound 0.0316 µM, first compound 0.1 µM
[3] = second compound 0.0316 µM, first compound 0.316 µM
[4] = second compound 0.0316 µM, first compound 1 µM
[5] = second compound 0.0316 µM, first compound 3.16 µM
[6] = second compound 0.0316 µM, first compound 10 µM
[7] = second compound 0.1 µM, first compound 0.0316 µM
[8] = second compound 0.1 µM, first compound 0.1 µM
[9] = second compound 0.1 µM, first compound 0.316 µM
[10] = second compound 0.1 µM, first compound 1 µM
[11] = second compound 0.1 µM, first compound 3.16 µM
[12] = second compound 0.1 µM, first compound 10 µM
[13] = second compound 0.316 µM, first compound 0.0316 µM
[14] = second compound 0.316 µM, first compound 0.1 µM
[15] = second compound 0.316 µM, first compound 0.316 µM
[16] = second compound 0.316 µM, first compound 1 µM
[17] = second compound 0.316 µM, first compound 3.16 µM
[18] = second compound 0.316 µM, first compound 10 µM
[19] = second compound 1 µM, first compound 0.0316 µM
[20] = second compound 1 µM, first compound 0.1 µM
[21] = second compound 1 µM, first compound 0.316 µM
[22] = second compound 1 µM, first compound 1 µM
[23] = second compound 1 µM, first compound 3.16 µM
[24] = second compound 1 µM, first compound 10 µM
[25] = second compound 3.16 µM, first compound 0.0316 µM
[26] = second compound 3.16 µM, first compound 0.1 µM
[27] = second compound 3.16 µM, first compound 0.316 µM
[28] = second compound 3.16 µM, first compound 1 µM
[29] = second compound 3.16 µM, first compound 3.16 µM
[30] = second compound 3.16 µM, first compound 10 µM
[31] = second compound 10 µM, first compound 0.0316 µM
[32] = second compound 10 µM, first compound 0.1 µM
[33] = second compound 10 µM, first compound 0.316 µM
[34] = second compound 10 µM, first compound 1 µM
[35] = second compound 10 µM, first compound 3.16 µM
[36] = second compound 10 µM, first compound 10 µM
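Also: spheroids exposed to compounds for seven days.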
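For viability, T/C in this document: 100% = DMSO vehicle control viability.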

In the case of `COc1cc(C2c3cc4c(cc3C(OC3OC5COC(C)OC5C(O)C3O)C3COC(=O)C23)OCO4)cc(OC)c1O` (stereo unspecified) + Cc1cnc(CNC(=O)c2c(=O)c3ccc(N4CCCN(C)CC4)nc3n3c2sc2ccccc23)cn1, the IC50 (second compound 0.0316 µM) is reported as 0.644 µM, the IC50 (second compound 0.1 µM) is reported as 0.507 µM and the IC50 (second compound 0.316 µM) is reported as 0.469 µM. The IC50 (second compound 1 µM) was 1.06 µM, the IC50 (second compound 3.16 µM) was 1.8 µM and the IC50 (second compound 10 µM) was < 0.0316 µM. The viability, T/C [1] was 100%, the viability, T/C [2] was 80.6% and the viability, T/C [3] was 70.7%. It also gave a viability, T/C [4] of 39.3%, a viability, T/C [5] of 17.8% and a viability, T/C [6] of 12.4%. It also gave a viability, T/C [7] of 85%, a viability, T/C [8] of 73.7% and a viability, T/C [9] of 59.2%. For the same compound, the viability, T/C [10] was 35%, the viability, T/C [11] was 28.6% and the viability, T/C [12] was 12%. It also gave a viability, T/C [13] of 75.6%, a viability, T/C [14] of 73.9% and a viability, T/C [15] of 53%. For the same compound, the viability, T/C [16] was 38%, the viability, T/C [17] was 29.4% and the viability, T/C [18] was 16.7%. The viability, T/C [19] was 67.8%, the viability, T/C [20] was 61.8% and the viability, T/C [21] was 55.9%. For the same compound, the viability, T/C [22] was 51.5%, the viability, T/C [23] was 40.5% and the viability, T/C [24] was 21.9%. It also gave a viability, T/C [25] of 66.9%, a viability, T/C [26] of 68.4% and a viability, T/C [27] of 58.3%. It also gave a viability, T/C [28] of 53.7%, a viability, T/C [29] of 47.5% and a viability, T/C [30] of 31.3%. The viability, T/C [31] was 16.2%, the viability, T/C [32] was 17.1% and the viability, T/C [33] was 58.4%. The viability, T/C [34] was 49.7%, the viability, T/C [35] was 29.3% and the viability, T/C [36] was 0.59%.

`COc1cccc2c1C(=O)c1c(O)c3c(c(O)c1C2=O)CC(O)(C(=O)CO)CC3OC1CC(N)C(O)C(C)O1` (stereo unspecified) + Cc1cnc(CNC(=O)c2c(=O)c3ccc(N4CCCN(C)CC4)nc3n3c2sc2ccccc23)cn1 showed an IC50 (second compound 0.0316 µM) of 0.166 µM, an IC50 (second compound 0.1 µM) of 0.184 µM and an IC50 (second compound 0.316 µM) of 0.418 µM. For the same compound, the IC50 (second compound 1 µM) was 0.746 µM, the IC50 (second compound 3.16 µM) was 0.763 µM and the IC50 (second compound 10 µM) was < 0.0316 µM. It also gave a viability, T/C [1] of 92.9%, a viability, T/C [2] of 52.9% and a viability, T/C [3] of 37.9%. The viability, T/C [4] was 28.8%, the viability, T/C [5] was 12.9% and the viability, T/C [6] was 0.39%. For the same compound, the viability, T/C [7] was 74.5%, the viability, T/C [8] was 45.4% and the viability, T/C [9] was 43.4%. It also gave a viability, T/C [10] of 41%, a viability, T/C [11] of 13.4% and a viability, T/C [12] of 0.51%. It also gave a viability, T/C [13] of 66.4%, a viability, T/C [14] of 52.3% and a viability, T/C [15] of 49.3%. For the same compound, the viability, T/C [16] was 44%, the viability, T/C [17] was 12% and the viability, T/C [18] was 0.51%. The viability, T/C [19] was 62.4%, the viability, T/C [20] was 54.9% and the viability, T/C [21] was 62.8%. It also gave a viability, T/C [22] of 46.2%, a viability, T/C [23] of 12.3% and a viability, T/C [24] of 0.26%. The viability, T/C [25] was 68%, the viability, T/C [26] was 69.2% and the viability, T/C [27] was 63.3%. For the same compound, the viability, T/C [28] was 46%, the viability, T/C [29] was 11% and the viability, T/C [30] was 0.67%. The viability, T/C [31] was 15.2%, the viability, T/C [32] was 20% and the viability, T/C [33] was 43.8%. For the same compound, the viability, T/C [34] was 27.7%, the viability, T/C [35] was 0.35% and the viability, T/C [36] was 0.21%.

For `Nc1ccn(C2OC(CO)C(O)C2(F)F)c(=O)n1` (stereo unspecified) + Cc1cnc(CNC(=O)c2c(=O)c3ccc(N4CCCN(C)CC4)nc3n3c2sc2ccccc23)cn1, the IC50 (second compound 0.0316 µM) was < 0.0316 µM, the IC50 (second compound 0.1 µM) was < 0.0316 µM and the IC50 (second compound 0.316 µM) was < 0.0316 µM. For the same compound, the IC50 (second compound 1 µM) was < 0.0316 µM, the IC50 (second compound 3.16 µM) was < 0.0316 µM and the IC50 (second compound 10 µM) was < 0.0316 µM. The viability, T/C [1] was 18.9%, the viability, T/C [2] was 15.8% and the viability, T/C [3] was 17.5%. The viability, T/C [4] was 16.6%, the viability, T/C [5] was 14.2% and the viability, T/C [6] was 14.4%. The viability, T/C [7] was 22.7%, the viability, T/C [8] was 16.1% and the viability, T/C [9] was 15.6%. It also gave a viability, T/C [10] of 21.5%, a viability, T/C [11] of 17.8% and a viability, T/C [12] of 13.8%. For the same compound, the viability, T/C [13] was 30.5%, the viability, T/C [14] was 19.5% and the viability, T/C [15] was 18.4%. The viability, T/C [16] was 16.1%, the viability, T/C [17] was 20.2% and the viability, T/C [18] was 23.2%. The viability, T/C [19] was 43.7%, the viability, T/C [20] was 24.6% and the viability, T/C [21] was 24%. It also gave a viability, T/C [22] of 24.2%, a viability, T/C [23] of 22.9% and a viability, T/C [24] of 21.8%. It also gave a viability, T/C [25] of 45.5%, a viability, T/C [26] of 29.6% and a viability, T/C [27] of 30.5%. The viability, T/C [28] was 24.8%, the viability, T/C [29] was 32.8% and the viability, T/C [30] was 28.5%. It also gave a viability, T/C [31] of 0.17%, a viability, T/C [32] of 9.59% and a viability, T/C [33] of 26.2%. It also gave a viability, T/C [34] of 7.48%, a viability, T/C [35] of 0.89% and a viability, T/C [36] of 0.22%.
